# Tested on: yeast genes (expressed mRNA)
# Assay: DNA chip measurement of expressed mRNA of yeast genes after culture with a toxic chemical substance
# Type: cell-based, Saccharomyces cerevisiae S288C
# Method: Yeast (Saccharomyces cerevisiae S288C (a SUC2mal mel gap2 CUP1)) were cultured at 25° C. on YPD medium (yeast extract 1%, polypeptone 2%, glucose 2%). One of toxic chemical substances was added to the cell at logarithmic growth phase, and the cell was further cultured for two hours. Cell was cultured without any chemical substance in the same condition, and was used as a control. Concentrations of the chemical substances were defined to inhibit the growth of the yeast but not lead to death.
# After the completion of cultivation, the culture was centrifuged to collect the cells. To the cells, sodium acetate buffer (50 mM sodium acetate, 10 mM EDTA, 1% SDS) was added, and the mixture was shaken at 65° C. for five minutes, followed by returning to room temperature, and obtaining the supernatant, which procedure was repeated two times. To the supernatant, ½ amount of a solution of phenol/chloroform (1:1) was added, and the mixture was centrifuged to give a supernatant, an equal amount of chloroform was added, and the mixture was centrifuged to give a supernatant. To the supernatant, an equal amount of isopropanol containing 0.3 M sodium acetate was added, and the mixture was allowed to stand at room temperature for 30 minutes, after which the mixture was centrifuged to give sediment of the whole RNAs. Seventy % ethanol was added to the sediment, and the mixture was again centrifuged to give sediment, which was then dried and dissolved in water. mRNA was isolated from the whole RNAs as followings. In view of the fact that a poly A chain is attached to the 3′ terminus of mRNA, a polynucleotide having a poly T structure which was immobilized on the surface of latex beads was used to trap the mRNA, and then the mRNA was washed and eluted with spine column (Oligotex-dT30<Super>mRNA Purification Kit, Takara). Reverse transcription of the mRNA was conducted with a reverse transcriptase (Super Script II Reverse Transcriptase; catalogue No. 18064-014, GibcoBRL) using fluorescence-labeled nucleotides to give cDNAs that were introduced with Cy3-dUTP or Cy5-dUTP during the reverse transcription.
# The labeled cDNAs were dissolved in TE buffer (10 mM Tris-HCl/1 mM EDTA, pH 8.0), and the solution was dropped on the DNA chip containing the whole genes of yeast (DNA Chip Research Inc. Japan) so that the cDNAs were hybridized on the DNA chip at 65° C. for over 12 hours. The fluoresces intensity of the DNA chip was read with a scanner, and the ratio relative to the fluorescence intensity resulting from the absence of chemical substance was estimated as the following, which is shown in Tables 1 to 9.
# In the Tables, “Intensity” indicated in the rightmost column is a value of the level of expressed mRNA of each gene in control cells as divided by the average level of the expressions of the whole genes. A gene of which mRNA level is lower in control, and is higher in cases of addition of chemical substance, is especially useful in the detection of toxic substances.
# Here, when a ratio of an amount of mRNA expressed in the presence of the chemical substance to an amount of mRNA expressed in the absence of the chemical substance is two or more, then it is considered significant.
smiles,measurement,setting,value
"COc1cc(CNC(=O)CCCCC=CC(C)C)ccc1O [(12), 8-Methyl-N-vanillyl-6-nonenamide]",The level of expressed mRNA in the presence of chemical substance/The level of expressed mRNA in the absence of chemical substance,"yeast gene YFL024C, cultured two hours with substance",0.8
same,The level of expressed mRNA in the presence of chemical substance/The level of expressed mRNA in the absence of chemical substance,"yeast gene YFL032W, cultured two hours with substance",0.7
same,The level of expressed mRNA in the presence of chemical substance/The level of expressed mRNA in the absence of chemical substance,yeast gene YGL001C,0.9
same,The level of expressed mRNA in the presence of chemical substance/The level of expressed mRNA in the absence of chemical substance,"yeast gene YGL037C, cultured two hours with substance",0.8
same,The level of expressed mRNA in the presence of chemical substance/The level of expressed mRNA in the absence of chemical substance,"yeast gene YGL047W, cultured two hours with substance",1.1
same,The level of expressed mRNA in the presence of chemical substance/The level of expressed mRNA in the absence of chemical substance,"yeast gene YGL053W, cultured two hours with substance",1.3
same,The level of expressed mRNA in the presence of chemical substance/The level of expressed mRNA in the absence of chemical substance,"yeast gene YGL062W, cultured for two hours with substance",1.6
same,The level of expressed mRNA in the presence of chemical substance/The level of expressed mRNA in the absence of chemical substance,yeast gene YGL104C,1.1
same,The level of expressed mRNA in the presence of chemical substance/The level of expressed mRNA in the absence of chemical substance,yeast gene YGL115W (stress protein genes),0.9
same,The level of expressed mRNA in the presence of chemical substance/The level of expressed mRNA in the absence of chemical substance,"yeast gene YGL117W, cultured two hours with substance",1.5
same,The level of expressed mRNA in the presence of chemical substance/The level of expressed mRNA in the absence of chemical substance,"yeast gene YGL121C, cultured two hours with substance",1.6
same,The level of expressed mRNA in the presence of chemical substance/The level of expressed mRNA in the absence of chemical substance,"yeast gene YGL136C, cultured two hours with substance",1.1
same,The level of expressed mRNA in the presence of chemical substance/The level of expressed mRNA in the absence of chemical substance,"yeast gene YGL199C, cultured two hours with substance",0.9
same,The level of expressed mRNA in the presence of chemical substance/The level of expressed mRNA in the absence of chemical substance,yeast gene YGL209W,1.3
same,The level of expressed mRNA in the presence of chemical substance/The level of expressed mRNA in the absence of chemical substance,"yeast gene YGR035C, cultured two hours with substance",3.3
same,The level of expressed mRNA in the presence of chemical substance/The level of expressed mRNA in the absence of chemical substance,"yeast gene YGR055W, metabolism protein genes",0.9
same,The level of expressed mRNA in the presence of chemical substance/The level of expressed mRNA in the absence of chemical substance,"yeast gene YGR101W, cultured two hours with substance",1.0
same,The level of expressed mRNA in the presence of chemical substance/The level of expressed mRNA in the absence of chemical substance,"yeast gene YGR110W, cultured two hours with substance",1.4
same,The level of expressed mRNA in the presence of chemical substance/The level of expressed mRNA in the absence of chemical substance,"yeast gene YGR130C, cultured two hours with substance",0.7
same,The level of expressed mRNA in the presence of chemical substance/The level of expressed mRNA in the absence of chemical substance,"yeast gene YGR142W, cultured two hours with substance",2.0
same,The level of expressed mRNA in the presence of chemical substance/The level of expressed mRNA in the absence of chemical substance,"yeast gene YGR146C, cultured two hours with substance",1.4
same,The level of expressed mRNA in the presence of chemical substance/The level of expressed mRNA in the absence of chemical substance,"yeast gene YGR154C, cultured two hours with substance",0.9
same,The level of expressed mRNA in the presence of chemical substance/The level of expressed mRNA in the absence of chemical substance,"yeast gene YGR221C, cultured two hours with substance",1.6
same,The level of expressed mRNA in the presence of chemical substance/The level of expressed mRNA in the absence of chemical substance,yeast gene YGR281W (transport facilitation protein gene),2.4
same,The level of expressed mRNA in the presence of chemical substance/The level of expressed mRNA in the absence of chemical substance,yeast gene YGR282C,1.3
same,The level of expressed mRNA in the presence of chemical substance/The level of expressed mRNA in the absence of chemical substance,"yeast gene YGR284C, cultured two hours with substance",2.1
same,The level of expressed mRNA in the presence of chemical substance/The level of expressed mRNA in the absence of chemical substance,"yeast gene YHL038C, mitochondria-located protein gene, cultured two hours with substance",1.6
same,The level of expressed mRNA in the presence of chemical substance/The level of expressed mRNA in the absence of chemical substance,yeast gene YHL047C (transport facilitation protein gene),2.6
same,The level of expressed mRNA in the presence of chemical substance/The level of expressed mRNA in the absence of chemical substance,"yeast gene YHR029C, cultured two hours with substance",1.5
same,The level of expressed mRNA in the presence of chemical substance/The level of expressed mRNA in the absence of chemical substance,"yeast gene YHR054C, cultured two hours with substance",3.6
same,The level of expressed mRNA in the presence of chemical substance/The level of expressed mRNA in the absence of chemical substance,"yeast gene YHR111W, metabolism protein genes",0.9
same,The level of expressed mRNA in the presence of chemical substance/The level of expressed mRNA in the absence of chemical substance,"yeast gene YHR138C, cultured two hours with substance",1.8
same,The level of expressed mRNA in the presence of chemical substance/The level of expressed mRNA in the absence of chemical substance,"yeast gene YHR179W, cultured for two hours with substance",2.2
same,The level of expressed mRNA in the presence of chemical substance/The level of expressed mRNA in the absence of chemical substance,"yeast gene YHR199C, cultured two hours with substance",1.1
same,The level of expressed mRNA in the presence of chemical substance/The level of expressed mRNA in the absence of chemical substance,"yeast gene YHR209W, cultured two hours with substance",1.0
same,The level of expressed mRNA in the presence of chemical substance/The level of expressed mRNA in the absence of chemical substance,"yeast gene YIL023C, cultured two hours with substance",0.9
same,The level of expressed mRNA in the presence of chemical substance/The level of expressed mRNA in the absence of chemical substance,"yeast gene YIL024C, cultured two hours with substance",0.7
same,The level of expressed mRNA in the presence of chemical substance/The level of expressed mRNA in the absence of chemical substance,"yeast gene YIL041W, cultured two hours with substance",1.0
same,The level of expressed mRNA in the presence of chemical substance/The level of expressed mRNA in the absence of chemical substance,"yeast gene YIL077C, cultured two hours with the substance",1.6
same,The level of expressed mRNA in the presence of chemical substance/The level of expressed mRNA in the absence of chemical substance,"yeast gene YIL087C, cultured two hours with substance",1.1
same,The level of expressed mRNA in the presence of chemical substance/The level of expressed mRNA in the absence of chemical substance,"yeast gene YIL117C, cultured two hours with substance",1.4
same,The level of expressed mRNA in the presence of chemical substance/The level of expressed mRNA in the absence of chemical substance,yeast gene YIL154C,1.1
same,The level of expressed mRNA in the presence of chemical substance/The level of expressed mRNA in the absence of chemical substance,yeast gene YIL167W,0.7
same,The level of expressed mRNA in the presence of chemical substance/The level of expressed mRNA in the absence of chemical substance,"yeast gene YJL020C, cultured two hours with substance",0.7
same,The level of expressed mRNA in the presence of chemical substance/The level of expressed mRNA in the absence of chemical substance,"yeast gene YJL052W, cultured for two hours with substance",2.4
same,The level of expressed mRNA in the presence of chemical substance/The level of expressed mRNA in the absence of chemical substance,"yeast gene YJL057C, cultured two hours with substance",1.0
same,The level of expressed mRNA in the presence of chemical substance/The level of expressed mRNA in the absence of chemical substance,"yeast gene YJL066C, cultured two hours with substance",1.0
same,The level of expressed mRNA in the presence of chemical substance/The level of expressed mRNA in the absence of chemical substance,"yeast gene YJL082W, cultured two hours with substance",1.3
same,The level of expressed mRNA in the presence of chemical substance/The level of expressed mRNA in the absence of chemical substance,"yeast gene YJL108C, cultured two hours with substance",0.4
same,The level of expressed mRNA in the presence of chemical substance/The level of expressed mRNA in the absence of chemical substance,"yeast gene YJL149W, cultured two hours with substance",1.1

# — patent US20100041089A1, “IMPROVED METHOD FOR DETECTING CHEMICAL […]” (priority 2006, published 2010)
